# Measured values reported in patent US11203591B2, “Substituted 6-azabenzimidazole compounds” (Gilead Sciences, Inc., priority 2018, dated 2021).
# Target: human HPK1 (MAP4K1) (Homo sapiens (Human), UniProt Q92918)
# Assay: HPK1 IC50 Assay (TR-FRET peptide phosphorylation)
# Assay type: biochemical
# Conditions: 0.15 nM HPK1, 10 μM ATP, 1 μM STK S1 peptide substrate; geometric mean
# Summary of the method: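 Readout: TR-FRET (665 nm/620 nm) after EDTA stop, detecting STK S1 peptide (1 μM) phosphorylation by 0.15 nM HPK1 kinase domain, ATP-pre-activated, at 10 μM ATP over 3 h, 25° C, pH 7.0. IC50s from four-parameter variable-slope fits, normalized to staurosporine and DMSO, averaged geometrically.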
# Sequence of human HPK1 (MAP4K1) (Q92918 17-274): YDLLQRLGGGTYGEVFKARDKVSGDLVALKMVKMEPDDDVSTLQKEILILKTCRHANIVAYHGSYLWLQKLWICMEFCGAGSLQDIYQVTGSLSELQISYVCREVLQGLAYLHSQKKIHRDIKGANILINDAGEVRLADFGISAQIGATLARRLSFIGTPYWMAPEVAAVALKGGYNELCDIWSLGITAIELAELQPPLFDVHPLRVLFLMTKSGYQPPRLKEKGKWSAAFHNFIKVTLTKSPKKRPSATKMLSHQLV
row,IC50,SMILES
1,70 pM,"CC(C)n1cnc2cc(-c3ccc4c(c3)N([C@H]3C[C@@](C)(N5CCCCC5)C3)C(=O)C4(C)C)nc(Nc3cc(C(=O)NC4(CF)CC4)c(Cl)c(F)c3F)c21 [Example 292, 2-chloro-5-((6-(3,3-dimethyl-1-((1s,3s)-3-methyl-3-(piperidin-1-yl)cyclobutyl)-2-oxoindolin-6-yl)-3-isopropyl-3H-imidazo[4,5-c]pyridin-4-yl)amino)-3,4-difluoro-N-(1-(fluoromethyl)cyclopropyl)benzamide]"
2,100 pM,"CCNC(=O)c1cc(Nc2nc(-c3cc4c(nc3F)C(C)(C)C(=O)N4[C@H]3C[C@@](C)(N4CCCC5(CC5)C4)C3)cc3ncn(C(C)C)c23)c(F)c(F)c1C [Example 279, N-ethyl-3,4-difluoro-5-((6-(5-fluoro-3,3-dimethyl-1-((1s,3s)-3-methyl-3-(5-azaspiro[2.5]octan-5-yl)cyclobutyl)-2-oxo-2,3-dihydro-1H-pyrrolo[3,2-b]pyridin-6-yl)-3-isopropyl-3H-imidazo[4,5-c]pyridin-4-yl)amino)-2-methylbenzamide]"

# Same assay, conditions: recombinant HPK1 kinase domain 0.15 nM, 10 μM ATP, 1 μM STK S1 peptide; geometric mean of multiple experiments
row,IC50,SMILES
1,300 pM,"Cc1c(C(=O)NC2(C(F)F)CC2)cc(Nc2nc(-c3ccc4c(c3)N([C@H]3C[C@@](C)(N5CCCCC5)C3)CC4(C)C)cc3ncn(C(C)C)c23)c(F)c1F [Example 237, N-(1-(Difluoromethyl)cyclopropyl)-5-((6-(3,3-dimethyl-1-((1s,3s)-3-methyl-3-(piperidin-1-yl)cyclobutyl)indolin-6-yl)-3-isopropyl-3H-imidazo[4,5-c]pyridin-4-yl)amino)-3,4-difluoro-2-methylbenzamide]"
2,40 pM,"Cc1c(C(=O)NC2(C(F)F)CC2)cc(Nc2nc(-c3cnc4c(c3)N([C@H]3C[C@@H](N5CCCCC5)C3)C(=O)C4(C)C)cc3ncn(C(C)C)c23)c(F)c1F [Example 246, N-(1-(difluoromethyl)cyclopropyl)-5-((6-(3,3-dimethyl-2-oxo-1-((1s,3s)-3-(piperidin-1-yl)cyclobutyl)-2,3-dihydro-1H-pyrrolo[3,2-b]pyridin-6-yl)-3-isopropyl-3H-imidazo[4,5-c]pyridin-4-yl)amino)-3,4-difluoro-2-methylbenzamide]"
3,100 pM,CNC(=O)c1cc(Nc2nc(-c3ccc4c(c3)N([C@H]3C[C@@H](N5CCCCC5)C3)C(=O)C4(C)C)cc3ncn(C(C)C)c23)c(F)cc1C [Example 175]
4,70 pM,CCNC(=O)c1cc(Nc2nc(-c3ccc4c(c3)N([C@H]3C[C@@H](N5CCCCC5)C3)C(=O)C43CCOCC3)cc3ncn(C(C)C)c23)ccc1C [Example 22]
5,60 pM,"Cc1c(C(=O)NC2(C(F)F)CC2)cc(Nc2nc(-c3cnc4c(c3)N([C@H]3C[C@@](C)(N5CCCC6(CC6)C5)C3)C(=O)C4(C)C)cc3ncn(C(C)C)c23)c(F)c1F [Example 194, N-(1-(Difluoromethyl)cyclopropyl)-5-((6-(3,3-dimethyl-1-((1s,3s)-3-methyl-3-(5-azaspiro[2.5]octan-5-yl)cyclobutyl)-2-oxo-2,3-dihydro-1H-pyrrolo[3,2-b]pyridin-6-yl)-3-isopropyl-3H-imidazo[4,5-c]pyridin-4-yl)amino)-3,4-difluoro-2-methylbenzamide]"
6,70 pM,"Cc1c(C(=O)NC2(C(F)F)CC2)cc(Nc2nc(-c3cnc4c(c3)N([C@H]3C[C@@](C)(N5CCC6CC5CO6)C3)C(=O)C4(C)C)cc3ncn(C(C)C)c23)c(F)c1F (mixture of isomers) [Example 190, 5-((6-(1-((1s,3s)-3-(6-Oxa-2-azabicyclo[3.2.1]octan-2-yl)-3-methylcyclobutyl)-3,3-dimethyl-2-oxo-2,3-dihydro-1H-pyrrolo[3,2-b]pyridin-6-yl)-3-isopropyl-3H-imidazo[4,5-c]pyridin-4-yl)amino)-N-(1-(difluoromethyl)cyclopropyl)-3,4-difluoro-2-methylbenzamide]"
7,100 pM,CNC(=O)c1cc(Nc2nc(-c3ccc4c(c3)N([C@H]3C[C@@H](N5CCCC6(C5)CC6(F)F)C3)C(=O)C43CCN(C(C)=O)CC3)cc3ncn(C4CC4)c23)ccc1C (stereo partly drawn) [Example 163]
8,80 pM,CNC(=O)c1cc(Nc2nc(-c3ccc4c(c3)N([C@H]3C[C@@H](NCC(C)(C)F)C3)C(=O)C4(C)C)cc3ncn(C(C)C)c23)ccc1C [Example 82]
9,100 pM,"CC(C)n1cnc2cc(-c3cnc4c(c3)N([C@H]3C[C@@](C)(N5CCOCC5)C3)C(=O)C4(C)C)nc(Nc3cc(C(=O)NC4(C(F)F)CC4)c(Cl)c(F)c3F)c21 [Example 199, 2-Chloro-N-(1-(difluoromethyl)cyclopropyl)-5-((6-(3,3-dimethyl-1-((1s,3s)-3-methyl-3-morpholinocyclobutyl)-2-oxo-2,3-dihydro-1H-pyrrolo[3,2-b]pyridin-6-yl)-3-isopropyl-3H-imidazo[4,5-c]pyridin-4-yl)amino)-3,4-difluorobenzamide]"
10,300 pM,Cc1ccc(Nc2nc(-c3cnc4c(c3)N([C@H]3C[C@@H](N5CCCCC5)C3)C(=O)C4(C)C)cc3ncn(C(C)C)c23)cc1C(=O)NC1(C(F)F)CC1 [Example 19]
11,60 pM,CCc1ccc(Nc2nc(-c3ccc4c(c3)N([C@H]3C[C@@H](N5CCCCC5)C3)C(=O)C4(C)C)cc3ncn(C(C)C)c23)cc1C(=O)NC [Example 143]
12,60 pM,"Cc1c(C(=O)NCC(F)F)cc(Nc2nc(-c3cnc4c(c3)N([C@H]3C[C@@](C)(N5CCCCC5)C3)C(=O)C4(C)C)cc3ncn(C(C)C)c23)c(F)c1F [Example 217, N-(2,2-Difluoroethyl)-5-((6-(3,3-dimethyl-1-((1s,3s)-3-methyl-3-(piperidin-1-yl)cyclobutyl)-2-oxo-2,3-dihydro-1H-pyrrolo[3,2-b]pyridin-6-yl)-3-isopropyl-3H-imidazo[4,5-c]pyridin-4-yl)amino)-3,4-difluoro-2-methylbenzamide]"
13,300 pM,COCC1(NC(=O)c2cc(Nc3nc(-c4ccc5c(c4)N([C@H]4C[C@@H](N6CCCCC6)C4)C(=O)C54CCN(C(C)=O)CC4)cc4ncn(C(C)C)c34)c(F)cc2C)CC1 [Example 90]
14,600 pM,CNC(=O)c1cc(Nc2nc(-c3ccc4c(c3)N([C@H]3C[C@@H](N5CCCCC5)C3)CC4(C)C)cc3ncn(C4CC4)c23)ccc1C [Example 58]
15,50 pM,"Cc1ccc(Nc2nc(-c3ccc4c(c3)N([C@H]3C[C@@H](N5CCCCC5)C3)C(=O)C4(C)C)cc3ncn(C(C)C)c23)cc1C(=O)NC(C)C(F)F (stereo partly drawn) [Example 21, N-(1,1-difluoropropan-2-yl)-5-((6-(3,3-dimethyl-2-oxo-1-((1s,3s)-3-(piperidin-1-yl)cyclobutyl)indolin-6-yl)-3-isopropyl-3H-imidazo[4,5-c]pyridin-4-yl)amino)-2-methylbenzamide]"
16,300 pM,CC(=O)N1CCC2(CC1)C(=O)N([C@H]1C[C@@H](N3CCCCC3)C1)c1cc(-c3cc4ncn(C(C)C)c4c(Nc4cc(C(=O)NC(C)(C)C)c(C)cc4F)n3)ccc12 [Example 59]
17,100 pM,CCn1cnc2cc(-c3ccc4c(c3)N([C@H]3C[C@@H](N5CCCCC5)C3)C(=O)C43CCN(C(C)=O)CC3)nc(Nc3ccc(C)c(C(=O)NC)c3)c21 [Example 49]
18,70 pM,CNC(=O)c1cc(Nc2nc(-c3ccc4c(c3)N([C@H]3C[C@@H](N5CCCCC5)C3)C(=O)C4(C)C)cc3ncn(C(C)C)c23)ccc1C(F)(F)F [Example 141]
19,80 pM,"CC(C)n1cnc2cc(-c3cnc4c(c3)N([C@H]3C[C@@](C)(N5CCC6CC6C5)C3)C(=O)C4(C)C)nc(Nc3cc(C(=O)NC4(C(F)F)CC4)c(Cl)c(F)c3F)c21 (mixture of isomers) [Example 260, 5-((6-(1-((1s,3s)-3-(3-azabicyclo[4.1.0]heptan-3-yl)-3-methylcyclobutyl)-3,3-dimethyl-2-oxo-2,3-dihydro-1H-pyrrolo[3,2-b]pyridin-6-yl)-3-isopropyl-3H-imidazo[4,5-c]pyridin-4-yl)amino)-2-chloro-N-(1-(difluoromethyl)cyclopropyl)-3,4-difluorobenzamide]"
20,200 pM,CC(=O)N1CCC2(CC1)C(=O)N([C@H]1C[C@@H](N3CC4CCC(C3)O4)C1)c1cc(-c3cc4ncn(C(C)C)c4c(Nc4cc(C(=O)NC(C)C)c(C)cc4F)n3)ccc12 [Example 78]
21,40 pM,"CCNC(=O)c1cc(Nc2nc(-c3ccc4c(c3)N([C@H]3C[C@@](C)(N5CCCCC5)C3)C(=O)C4(C)C)cc3ncn(C(C)C)c23)c(F)c(F)c1C [Example 239, 5-((6-(3,3-Dimethyl-1-((1s,3s)-3-methyl-3-(piperidin-1-yl)cyclobutyl)-2-oxoindolin-6-yl)-3-isopropyl-3H-imidazo[4,5-c]pyridin-4-yl)amino)-N-ethyl-3,4-difluoro-2-methylbenzamide]"
22,100 pM,CNC(=O)c1cc(Nc2nc(-c3ccc4c(c3)N([C@H]3C[C@@H](N5CCCCC5)C3)C(=O)C43CCOCC3)cc3ncn(C4CC4)c23)ccc1C [Example 127]
23,100 pM,"CC(C)n1cnc2cc(-c3cnc4c(c3)N([C@H]3C[C@@H](N5CCCCC5)C3)C(=O)C4(C)C)nc(Nc3cc(C(=O)NC4(C(F)F)CC4)c(Cl)c(F)c3F)c21 [Example 245, 2-chloro-N-(1-(difluoromethyl)cyclopropyl)-5-((6-(3,3-dimethyl-2-oxo-1-((1s,3s)-3-(piperidin-1-yl)cyclobutyl)-2,3-dihydro-1H-pyrrolo[3,2-b]pyridin-6-yl)-3-isopropyl-3H-imidazo[4,5-c]pyridin-4-yl)amino)-3,4-difluorobenzamide]"
24,100 pM,Cc1ccc(Nc2nc(-c3ccc4c(c3)N([C@H]3C[C@@H](N5CCCCC5)C3)C(=O)C4(C)C)cc3ncn(C(C)C)c23)cc1C(=O)N[C@@H](C)CF [Example 29]

row,SMILES,IC50
1,CC(=O)N1CCC2(CC1)C(=O)N([C@H]1C[C@@H](N3C4CCC3COC4)C1)c1cc(-c3cc4ncn(C(C)C)c4c(Nc4cc(C(=O)NC(C)C)c(C)cc4F)n3)ccc12 [Example 77],60 pM
